Data published in patent US11185100B2 (priority 2014, dated 2021).
Where two headings read alike, the source gives them in different places.

Experiments:
T1R1/T1R3 receptor [1] = target: T1, T1R1/T1R3 receptor (Felis catus, UniProt E3UMS2); assay: Activation of T1R1/T1R3 receptor by transmembrane compounds and nucleotide derivatives, conducted as in Examples 1, 2 and 5 (Example 7); format: cell-based, cat; settings: for Activity: modulation of T1R1/T1R3
Text: (§1) Methods: HEK293 cells that stably express T1R3 and inducibly express T1R1 were exposed to nucleotide derivatives alone to activate the umami receptor. Activation of the T1R1/T1R3 receptor was detected by a change in intracellular calcium levels using a calcium sensitive fluorescent dye. Cells that express T1R3 but not T1R1 were used as a control. A FLIPR® Tetra or a FlexStation® 3 was used for data capture.
as §1, with “alone or in combination with one or more amino acids and/or one or more nucleotides” for “alone”, “dye and/or a luminescent reporter system.” for “dye.”
as §1, with “transmembrane compounds” for “nucleotide derivatives”, “alone or in combination with one or more amino acids and/or one or more nucleotides” for “alone”
In each experiment, serial dilutions of up to 10 mM of the transmembrane compound were added to the T1R1/T1R3-expressing cells.

cat T1R1/T1R3 receptor = cat T1R1/T1R3 receptor (Felis catus, UniProt E3UMS2); assay: cell-based; format: cell-based
Text: as §1, with “alone or in combination with one or more amino acids and/or one or more nucleotides” for “alone”, “dye and/or a luminescent reporter system.” for “dye.”

T1R1/T1R3 receptor [2] = target: T1, T1R1/T1R3 receptor; assay: PAM screening of transmembrane compounds with GMP and Ala on T1R1/T1R3 in HEK293 cells (Example 8); format: cell-based, cat; settings: in the presence of GMP and Alanine
Text: PAM Screening Method: HEK293 cells that stably express T1R3 and inducibly express T1R1 were exposed to transmembrane compound alone or in combination with Ala and GMP to activate the umami receptor. Activation of the T1R1/T1R3 receptor was detected by a change in intracellular calcium levels using a calcium sensitive fluorescent dye and/or a luminescent reporter system. […] A FLIPR® Tetra or a FlexStation® 3 was used for data capture.
Dose response curves were generated for each transmembrane compound at concentrations of 0 (buffer only), 0.01, 0.1 and 1 mM, wherein each of the three concentrations of transmembrane compound was tested in combination with 0.03 mM GMP+100 mM Ala (T1); 0.6 mM GMP+10 mM Ala (T2); 0.1 mM GMP+60 mM Ala (T3) and 0.3 mM GMP+60 mM Ala (T4). The T4 mixture was also tested in a 2-fold dilution series (the T4(X) Concentration). In these experiments, the first test concentration was 2× (2 times) the T4 concentration. The subsequent test concentrations were 2-fold dilutions from that (1×, 0.5× etc.). This dilution series was tested with or without the addition of the test compound at a constant 0.3 mM concentration.
Activation of the umami receptor was also determined in the presence of 1 mM GMP+100 mM Ala to generate a “maximum” umami receptor activation level.

Row | Compound | Max resp % of Ala +IMP (0.2 mM) (T1R1/T1R3 receptor [1]; +IMP (0.2 mM)) | Max resp ΔF/F +IMP (0.2 mM) (T1R1/T1R3 receptor [1]; +IMP (0.2 mM)) | Thres +IMP (0.2 mM) (T1R1/T1R3 receptor [1]; +IMP (0.2 mM)) [mM] | Activity (T1R1/T1R3 receptor [1]) | Max resp ΔF/F +Alanine (20 mM) (T1R1/T1R3 receptor [1]) | Max resp % of IMP +Alanine (20 mM) (T1R1/T1R3 receptor [1]; hek293 cells) | also measured
1 | N[C@@H](Cc1c[nH]cn1)C(=O)O [L-Histidine, L-histidine, reference compound] | 36.3 % of Ala | 0.2825 ΔF/F | 10.0 |  |  |  | 
2 | O=P(O)(O)OP(=O)(O)OP(=O)(O)OC[C@H]1O[C@@H](n2cnc3c(Cl)ncnc32)[C@H](O)[C@@H]1O [6-Chloropurine riboside-5′-O-triphosphate] | 30.2 % of Ala | 0.2350 ΔF/F | 0.003 | active |  |  | Max resp. (ΔF/F) (cat T1R1/T1R3 receptor): 0.345 ΔF/F; Threshold (cat T1R1/T1R3 receptor): 0.01 mM; Max. resp. % of IMP (cat T1R1/T1R3 receptor; hek293 cells): 50.4 % of IMP; Max resp % of IMP +Alanine (20 mM) (T1R1/T1R3 receptor [1]; +Alanine (20 mM)): 50.4 % of IMP; Max resp ΔF/F +Alanine (20 mM) (T1R1/T1R3 receptor [1]; +Alanine (20 mM)): 0.3450 ΔF/F; Thres +Alanine (20 mM) (T1R1/T1R3 receptor [1]; +Alanine (20 mM)): 0.01 mM
3 | O=C(NCCCCNC(=O)c1cccnc1)c1cccnc1 [N,N′-(butane-1,4-diyl)dinicotinamide] | 49.2 % of Ala | 0.3825 ΔF/F | 0.1 | active | 0.0650 ΔF/F | 9.5 % of IMP | Thres +Alanine (20 mM) (T1R1/T1R3 receptor [1]): 1.0 mM; EC50 (T1R1/T1R3 receptor [1]; read-out: EC50 +Alanine (20 mM) + IMP (0.2 mM)): 610 µM; EC50 (T1R1/T1R3 receptor [1]; read-out: T1R1/T1R3 EC50): 610 ± 360 µM
4 | O=C(NCCc1ccccc1)c1ccccc1 [N-phenethylbenzamide] | 126.0 % of Ala | 0.9800 ΔF/F | 0.01 | active | 0.1400 ΔF/F | 20.4 % of IMP | Thres +Alanine (20 mM) (T1R1/T1R3 receptor [1]): 0.6 mM
5 | CC(=O)Nc1ccc(C(=O)Nc2cc(-c3ccccc3)nn2CCO)cc1 [4-acetamido-N-(1-(2-hydroxyethyl)-3-phenyl-1H-pyrazol-5-yl)benzamide] | 58.8 % of Ala | 0.4575 ΔF/F |  | active | 0.0125 ΔF/F | 1.8 % of IMP | 
6 | Nc1nc2c(ncn2[C@@H]2O[C@H](COP(=O)(O)O)[C@@H](O)[C@H]2O)c(=O)[nH]1 [Guanosine monophosphate (GMP), guanosine monophosphate, reference compound] |  |  |  |  |  |  | Max resp % of IMP +Alanine (20 mM) (T1R1/T1R3 receptor [1]; +Alanine (20 mM)): 114.6 % of IMP; Max resp ΔF/F +Alanine (20 mM) (T1R1/T1R3 receptor [1]; +Alanine (20 mM)): 0.7850 ΔF/F; Thres +Alanine (20 mM) (T1R1/T1R3 receptor [1]; +Alanine (20 mM)): 0.01 mM
7 | CCOC(=O)NC(=O)C(c1ccccc1)c1ccccc1 [Ro 01-6128, reference compound] | 199.7 % of Ala | 1.5525 ΔF/F | 0.01 | active |  |  | Max resp % of IMP +Alanine (20 mM) (T1R1/T1R3 receptor [1]; +Alanine (20 mM)): 74.8 % of IMP; Max resp ΔF/F +Alanine (20 mM) (T1R1/T1R3 receptor [1]; +Alanine (20 mM)): 0.5125 ΔF/F; Thres +Alanine (20 mM) (T1R1/T1R3 receptor [1]; +Alanine (20 mM)): 0.3 mM
8 | CC(C)CC(NC(=O)c1ccccc1)C(N)=O (racemic) | 204.5 % of Ala | 1.5900 ΔF/F | 0.1 | active | 0.8600 ΔF/F | 125.5 % of IMP | Thres +Alanine (20 mM) (T1R1/T1R3 receptor [1]): 0.3 mM; EC50 (T1R1/T1R3 receptor [1]; +0.2 mM IMP, read-out: T1R1/T1R3 EC50): 470 ± 70 µM; EC50 (T1R1/T1R3 receptor [1]; alone in buffer, read-out: T1R1/T1R3 EC50): > 600 µM; EC50 (T1R1/T1R3 receptor [1]; read-out: T1R1/T1R3 EC50): > 1000 µM
9 | N[C@@H](CO)C(=O)O [L-Serine, reference compound] | 100.0 % of Ala | 0.7775 ΔF/F | 3.0 |  |  |  | 
10 | CSCC[C@H](N)C(=O)O [L-Methionine, reference compound] |  |  |  |  |  |  | Max resp ΔF/F +IMP (0.2 mM) (T1R1/T1R3 receptor [1]): 0.3500 ΔF/F; Thres +IMP (0.2 mM) (T1R1/T1R3 receptor [1]): 30.0 mM; Max resp % of Ala +IMP (0.2 mM) (T1R1/T1R3 receptor [1]; hek293 cells): 45.0 % of Ala
11 | O=C(CN1C(=O)C(=O)N(Cc2ccccc2)C1=O)c1ccc(Cl)s1 [1-benzyl-3-(2-(5-chlorothiophen-2-yl)-2-oxoethyl)imidazolidine-2,4,5-trione] |  |  |  |  |  |  | PAM profile assessment (activation of T1R1/T1R3 in the presence of GMP and Alanine) (T1R1/T1R3 receptor [2]): PAM activity
